Experimental findings from ChEMBL document CHEMBL3997855, “Discovery of Fevipiprant (NVP-QAW039), a Potent and Selective DP2 Receptor Antagonist for Treatment of Asthma” (ACS Med Chem Lett, 2017) are described below.

In assay [1] the target is T1, Prostaglandin D2 receptor 2 (Homo sapiens, UniProt Q9Y5Y4).
T1 sequence (Q9Y5Y4 whole entry): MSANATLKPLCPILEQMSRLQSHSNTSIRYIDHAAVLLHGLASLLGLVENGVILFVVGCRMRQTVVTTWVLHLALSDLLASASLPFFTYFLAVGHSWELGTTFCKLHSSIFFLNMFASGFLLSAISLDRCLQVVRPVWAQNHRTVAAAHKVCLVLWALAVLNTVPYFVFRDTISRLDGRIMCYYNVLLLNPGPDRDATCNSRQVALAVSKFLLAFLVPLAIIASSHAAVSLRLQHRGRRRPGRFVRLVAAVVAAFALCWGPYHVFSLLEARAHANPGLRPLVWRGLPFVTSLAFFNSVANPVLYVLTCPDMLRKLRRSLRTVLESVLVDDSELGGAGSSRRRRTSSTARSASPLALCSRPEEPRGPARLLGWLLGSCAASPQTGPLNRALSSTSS
In words: Antagonist activity at DP2 receptor in human isolated eosinophils assessed as inhibition of DK-PGD2-induced shape change preincubated for 5 mins followed by DK-PGD2 addition measured after 5 mins by flow cytometry. On the technique in general: In flow cytometry, cells or beads pass a laser one at a time.

Assay [2] concerns the target T1, Prostaglandin D2 receptor 2. In words: Displacement of [3H]PGD2 from human DP2 receptor expressed in CHO cell membranes after 60 mins by scintillation proximity assay. (Loss of bound radioactivity is the signal in a displacement assay; it reports binding, not function.)
Assay [3] relates to Rattus norvegicus. Nature of the assay: In vivo antagonist activity at DP2 receptor in Sprague-Dawley rat DK-PGD2-induced pulmonary eosinophilia mechanistic model assessed inhibition of eosinophilia in broncho alveolar lavage fluid at 0.1 to 0.3 mg/kg, po pretreated for 40 mins starting at 2 hrs post IL-5 administration followed by DK-PGD2 administration measured after 2 hrs. The class given is functional, organism-based.

Assay [4] addresses T1, Prostaglandin D2 receptor 2. In words: Antagonist activity at DP2 receptor in CD4-positive human TH2 cells assessed as inhibition of DK-PGD2-induced IL-5 production after 6 to 8 hrs.
The target is the same in assay [5]. Nature of the assay: Antagonist activity at DP2 receptor in CD4-positive human TH2 cells assessed as inhibition of DK-PGD2-induced IL-13 production after 6 to 8 hrs.
For assay [6] the target is unchanged. In words: Displacement of [3H]NVP-QAW039 from human DP2 receptor expressed in CHO cell membranes by TopCount scintillation assay.
Assay [7] has as its target T2, Prostaglandin D2 receptor 2 (Homo sapiens) (UniProt Q9Y5Y4).
T2 sequence (whole entry): T1 sequence (Q9Y5Y4 whole entry)
Description: Displacement of [3H]NVP-QAW039 from human DP2 receptor expressed in CHO cell membranes assessed as dissociation half life by TopCount scintillation assay

Assay [8] is described as follows: Antagonist activity at DP2 receptor in human whole assessed as inhibition of DK-PGD2-induced eosinophils shape change preincubated for 5 mins followed by DK-PGD2 addition measured after 5 mins by flow cytometry.

A word on the IC50: it is the concentration that inhibits the measured activity by half. A word on the Ki: it is a dissociation constant, usually derived from enzyme kinetics or from competition with a known ligand. High values mean lower affinity, low ones higher affinity. For orientation: Kd means a measure of binding affinity in units of concentration. A low value points to tighter binding.

As to `Cc1cc(S(C)(=O)=O)ccc1Cn1c(C)c(CC(=O)O)c2cccnc21`, in assay [1], the IC50 was 0.004 µM.
`Cc1c(CC(=O)O)c2cc(Br)cnc2n1Cc1ccc(S(C)(=O)=O)cc1` registered a Ki in assay [2] of 0.735 µM.
Regarding `CCS(=O)(=O)c1ccc(Cn2c(C)c(CC(=O)O)c3cccnc32)cc1`, in assay [2], the affinity corresponds to a Ki of 0.05 µM. Further, the IC50 in assay [1] was 0.004 µM.
Take `Cc1c(CC(=O)O)c2cccnc2n1Cc1ccc(S(C)(=O)=O)cc1` [QAV680]: the IC50 is 0.005 µM in assay [1]; 0.04 µM in assay [3]; 0.059 µM in assay [4]; 0.025 µM in assay [5]; 0.031 µM in assay [8]. Besides, the Kd in assay [6] was 0.0151 µM. The molecule also gave a T1/2 in assay [7] of 1.29 min.
The molecule `Cc1c(CC(=O)O)c2cccnc2n1Cc1ccc(S(C)(=O)=O)c(C(F)(F)F)c1` returned a Ki in assay [2] of 0.031 µM. Moreover, in assay [1], the IC50 amounted to 0.004 µM.
Turning to `Cc1c(CC(=O)O)c2c(Cl)ccnc2n1Cc1ccc(S(C)(=O)=O)cc1`, the inhibitory constant (Ki) in assay [2] came to 0.356 µM. Also, in assay [1], the IC50 is 0.08 µM.
`Cc1ccc2c(CC(=O)O)c(C)n(Cc3ccc(S(C)(=O)=O)cc3)c2n1`: the Ki in assay [2] was 0.072 µM.
The same measure, in the same setting: with `Cc1cnc2c(c1)c(CC(=O)O)c(C)n2Cc1ccc(S(C)(=O)=O)cc1` the figure was 1.34 µM.
